Experimental data: ChEMBL document CHEMBL1154377, “Evaluation of basic, heterocyclic ring systems as templates for use as potassium competitive acid blockers (pCABs)” (Bioorg Med Chem Lett, 2009)
Calls of active or inactive are those of the source. The rule behind the calls is not given here.

How the values were obtained:
[1] = Dissociation constant, pKa of the compound; assay type: physicochemical
Cytochrome P450 2C9 = Cytochrome P450 2C9 (Homo sapiens, UniProt P11712)
[2] = Chromatographic hydrophobicity index at pH 7.4 by fast gradient HPLC; assay type: physicochemical; details: buffer
Cytochrome P450 3A4 [3] = target: T1, Cytochrome P450 3A4 (Homo sapiens, UniProt P08684); test: Inhibition of CYP3A4 using diethoxyfluorescein substrate; assay type: ADME
Cytochrome P450 1A2 = target: T2, Cytochrome P450 1A2 (Homo sapiens, UniProt P05177); test: Inhibition of CYP1A2; assay type: ADME
T2 sequence (P05177 whole entry): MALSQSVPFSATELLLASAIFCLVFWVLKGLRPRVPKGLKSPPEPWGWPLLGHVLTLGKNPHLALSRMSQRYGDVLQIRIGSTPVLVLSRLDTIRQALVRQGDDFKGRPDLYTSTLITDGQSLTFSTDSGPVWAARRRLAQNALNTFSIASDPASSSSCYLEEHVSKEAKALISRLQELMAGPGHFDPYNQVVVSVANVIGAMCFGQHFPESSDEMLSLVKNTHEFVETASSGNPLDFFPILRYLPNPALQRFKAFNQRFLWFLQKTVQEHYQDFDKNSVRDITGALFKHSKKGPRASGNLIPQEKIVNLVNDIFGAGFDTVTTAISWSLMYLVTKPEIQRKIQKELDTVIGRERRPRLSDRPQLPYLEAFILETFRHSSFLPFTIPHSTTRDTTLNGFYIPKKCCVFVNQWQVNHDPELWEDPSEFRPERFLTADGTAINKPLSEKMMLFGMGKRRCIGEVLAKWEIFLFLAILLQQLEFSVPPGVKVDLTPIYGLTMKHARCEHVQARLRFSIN

Cytochrome P450 2D6 = Cytochrome P450 2D6 (Homo sapiens, UniProt P10635); test: Inhibition of CYP2D6; assay type: ADME
Cytochrome P450 3A4 [4] = target: T1, Cytochrome P450 3A4; test: Inhibition of CYP3A4 using 7-benzyloxyquinoline substrate; assay type: ADME
[5] = Inhibition of H+/K+ ATPase at pH 7.4
Cytochrome P450 2C19 = Cytochrome P450 2C19 (Homo sapiens, UniProt P33261); test: Inhibition of CYP2C19; assay type: ADME
[6] = Inhibition of H+/K+ ATPase in parietal cells assessed as inhibition of histamine-stimulated [14C]aminopyrine accumulation
[7] = Intrinsic clearance in human liver microsomes; assay type: ADME, Microsome
[8] = Intrinsic clearance in rat liver microsomes; assay type: ADME, Microsome
[9] = Inhibition of H+/K+ ATPase in parietal cells assessed as inhibition of pentagastrin-stimulated [14C]aminopyrine accumulation at 1 uM; assay type: cell-based
[10] = Intrinsic clearance in dog liver microsomes; assay type: ADME, Canis lupus familiaris, Microsome
[11] = Inhibition of H+/K+ ATPase in parietal cells assessed as inhibition of pentagastrin-stimulated [14C]aminopyrine accumulation at 50 µM
[12] = Inhibition of H+/K+ ATPase in parietal cells assessed as inhibition of pentagastrin-stimulated [14C]aminopyrine accumulation at 50 nM; assay type: cell-based

Sequence of Cytochrome P450 2D6 (P10635 whole entry): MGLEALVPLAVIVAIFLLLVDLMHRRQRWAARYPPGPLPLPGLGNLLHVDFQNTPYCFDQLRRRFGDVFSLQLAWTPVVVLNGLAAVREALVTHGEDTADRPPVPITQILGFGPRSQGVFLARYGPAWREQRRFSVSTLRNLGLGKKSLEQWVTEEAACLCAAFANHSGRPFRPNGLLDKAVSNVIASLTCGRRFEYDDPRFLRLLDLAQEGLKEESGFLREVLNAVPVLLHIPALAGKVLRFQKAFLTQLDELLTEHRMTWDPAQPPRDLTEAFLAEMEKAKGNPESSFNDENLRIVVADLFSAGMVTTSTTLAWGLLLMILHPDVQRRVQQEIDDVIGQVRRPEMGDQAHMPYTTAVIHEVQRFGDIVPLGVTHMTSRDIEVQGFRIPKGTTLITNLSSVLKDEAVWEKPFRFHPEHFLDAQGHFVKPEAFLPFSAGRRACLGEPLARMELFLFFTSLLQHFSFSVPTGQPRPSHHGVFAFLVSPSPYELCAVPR
Sequence of Cytochrome P450 2C19 (P33261 whole entry): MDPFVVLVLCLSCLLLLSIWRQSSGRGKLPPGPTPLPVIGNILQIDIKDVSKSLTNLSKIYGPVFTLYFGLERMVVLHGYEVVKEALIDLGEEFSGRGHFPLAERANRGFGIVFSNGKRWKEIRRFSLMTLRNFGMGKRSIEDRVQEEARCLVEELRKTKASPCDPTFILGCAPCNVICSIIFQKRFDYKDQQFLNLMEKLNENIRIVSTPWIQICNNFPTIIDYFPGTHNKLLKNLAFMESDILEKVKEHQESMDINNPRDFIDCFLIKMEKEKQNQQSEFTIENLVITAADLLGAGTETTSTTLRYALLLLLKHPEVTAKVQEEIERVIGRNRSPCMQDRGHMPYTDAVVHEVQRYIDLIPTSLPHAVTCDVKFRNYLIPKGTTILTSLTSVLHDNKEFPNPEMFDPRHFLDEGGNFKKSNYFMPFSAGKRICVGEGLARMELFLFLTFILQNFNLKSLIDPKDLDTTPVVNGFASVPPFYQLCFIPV
T1 sequence (P08684 whole entry): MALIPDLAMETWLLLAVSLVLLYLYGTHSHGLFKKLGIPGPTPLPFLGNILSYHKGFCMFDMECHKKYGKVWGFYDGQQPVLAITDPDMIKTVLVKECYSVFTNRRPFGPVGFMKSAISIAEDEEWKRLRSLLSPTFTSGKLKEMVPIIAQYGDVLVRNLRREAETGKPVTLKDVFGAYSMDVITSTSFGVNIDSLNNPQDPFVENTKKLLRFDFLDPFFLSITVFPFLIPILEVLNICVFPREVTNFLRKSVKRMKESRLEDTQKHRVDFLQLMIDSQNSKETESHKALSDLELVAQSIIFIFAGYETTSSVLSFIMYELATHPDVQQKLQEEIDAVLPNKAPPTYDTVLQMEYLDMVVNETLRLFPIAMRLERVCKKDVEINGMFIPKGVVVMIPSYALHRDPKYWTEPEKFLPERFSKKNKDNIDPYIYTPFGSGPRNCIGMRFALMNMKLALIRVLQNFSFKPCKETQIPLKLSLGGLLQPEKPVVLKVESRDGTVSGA
Sequence of Cytochrome P450 2C9 (P11712 whole entry): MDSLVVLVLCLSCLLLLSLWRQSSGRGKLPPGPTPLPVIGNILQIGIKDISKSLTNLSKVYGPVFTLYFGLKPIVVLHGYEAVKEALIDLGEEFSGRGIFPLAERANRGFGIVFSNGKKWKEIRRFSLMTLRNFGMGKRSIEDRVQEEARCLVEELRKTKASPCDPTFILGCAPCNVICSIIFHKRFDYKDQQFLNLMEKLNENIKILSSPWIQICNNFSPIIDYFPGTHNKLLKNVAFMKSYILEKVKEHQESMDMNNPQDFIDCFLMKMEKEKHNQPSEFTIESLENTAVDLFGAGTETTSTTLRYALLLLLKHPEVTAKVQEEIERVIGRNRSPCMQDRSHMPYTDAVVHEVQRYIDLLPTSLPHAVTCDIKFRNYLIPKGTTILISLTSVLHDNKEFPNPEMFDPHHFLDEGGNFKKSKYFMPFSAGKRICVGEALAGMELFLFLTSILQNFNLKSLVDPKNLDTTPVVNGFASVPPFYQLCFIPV

Row | SMILES | pKa [1] | IC50 (Cytochrome P450 2C9) [µM] | chromatographic logD [2] | IC50 (Cytochrome P450 3A4 [3]) [µM] | IC50 (Cytochrome P450 1A2) [µM] | IC50 (Cytochrome P450 2D6) [µM] | IC50 (Cytochrome P450 3A4 [4]) [µM] | pIC50 [5] | IC50 (Cytochrome P450 2C19) [µM] | IC50 [6] [µM] | pKa ([1]; read-out: pKa) | CLint scaled [7] [mL/min/kg] | CLint scaled [8] [mL/min/kg] | pIC50 [9] | CLint scaled [10] [mL/min/kg] | inhibition [11] [%] | inhibition [12] [%]
1 | Cc1cccc(C)c1CNc1nc(-c2cccc(=O)[nH]2)cc2c(C)c(C)[nH]c12 | Insoluble | 2.3 | 4.12 | 1.3 | > 100 | 60 | 2.2 | 5.1 | 62 | 0.316 | – | – | – | – | – | – | –
2 | Cc1cccc(C)c1CNc1ccnc2c1nc(C)n2C | – | – | 2.27 | – | – | – | – | 4.5 | – | – | 5.81 | – | – | – | – | – | –
3 | C=CCn1c(C)c(C)c2cc(-n3ccccc3=O)nc(NCc3c(C)cccc3C)c21 | – | 0.5 | 4.06 | 2.4 | 62 | 26 | – | 7.5 | 6 | – | 4 | 13 | 20 | – | – | – | –
4 | Cc1cccc(C)c1CNc1nccn2c(C)c(C)nc12 | – | – | 3.4 | – | – | – | – | 7.1 | – | 0.282 | – | – | – | – | – | – | –
5 | Cc1cccc(C)c1CNc1cccn2c(C)nnc12 | – | – | 3.5 | – | – | – | – | 4 | – | – | – | – | – | inactive | – | – | –
6 | Cc1cc2ncnc(NCc3c(C)cccc3C)c2s1 | – | – | – | – | – | – | – | < 4 | – | – | – | – | – | – | – | – | –
7 | Cc1cccc(C)c1CNc1ncnc2c(C)c(C)[nH]c12 | – | > 100 | 2.53 | 8.8 | > 100 | 0.3 | > 100 | 5.9 | > 10 | 0.0631 | – | 2.8 | 9 | – | – | – | –
8 | CCc1cccc(C)c1CNc1cc(C(N)=O)cn2c(C)c(C)nc12 | – | – | – | – | – | – | – | – | – | 0.0234 | – | 6.5 | 14 | – | 3 | – | –
9 | Cc1cccc(C)c1CNc1cccc2c1nc(C)n2C | – | 8.8 | – | 13 | 2.1 | 35 | 9 | 5.5 | 9.2 | 0.0447 | – | 8 | 47 | – | – | – | –
10 | Cc1cccc(C)c1CNc1nccc2cc[nH]c12 | – | – | – | – | – | – | – | 6.8 | – | – | 8.63 | – | – | – | – | – | –
11 | Cc1cccc(C)c1CNc1ccnc2c1cc(C)n2C | – | – | 3.28 | – | – | – | – | 4.8 | – | – | 7.42 | – | – | – | – | 36 | –
12 | Cc1nc2c(OCc3ccccc3)cccn2c1CC#N | – | – | 4.2 | 9 | 2 | 82 | 12 | 7.4 | > 100 | 0.0166 | 7.28 | 8 | 8.5 | – | – | – | –
13 | Cc1cccc(C)c1COc1cccn2c(C)c(C)nc12 | – | 16 | 3.38 | 5.5 | 0.7 | 2.3 | 18 | 7.6 | 6.2 | – | 7.41 | – | – | – | – | – | –
14 | Cc1[nH]c2c(NCc3ccccc3)nccc2c1C | – | – | – | – | – | – | – | 8.4 | – | – | 8.79 | – | – | – | – | – | 98.5
15 | Cc1cccc(C)c1CNc1nc(N2CCNC2=O)cc2c(C)c(C)[nH]c12 | – | 2.7 | 2.54 | 1.6 | 22 | 0.7 | 1.6 | 6.5 | 8.2 | 0.158 | – | 1.3 | 6 | – | – | – | –
16 | Cc1cccc(C)c1CNc1cc(C(=O)NCCO)cn2c(C)c(C)nc12 [LINAPRAZAN] | – | – | 2.14 | – | – | – | – | – | – | 0.0562 | 6.27 | 1.3 | 4 | – | 0.9 | – | –

Row | SMILES | pKa [1] | IC50 (Cytochrome P450 2C9) [µM] | chromatographic logD [2] | IC50 (Cytochrome P450 3A4 [3]) [µM] | IC50 (Cytochrome P450 1A2) [µM] | IC50 (Cytochrome P450 2D6) [µM] | IC50 (Cytochrome P450 3A4 [4]) [µM] | pIC50 [5] | IC50 (Cytochrome P450 2C19) [µM] | IC50 [6] [µM] | pKa ([1]; read-out: pKa) | CLint scaled [7] [mL/min/kg] | CLint scaled [8] [mL/min/kg] | pIC50 [9] | CLint scaled [10] [mL/min/kg] | inhibition [11] [%] | inhibition [12] [%]
17 | CCn1c(C)c(C)c2cc(-n3ccccc3=O)nc(NCc3c(C)cccc3C)c21 | – | 0.7 | 3.9 | 2.9 | 65 | 18 | – | 7.4 | 6.5 | 0.2 | 4 | 22 | 41 | – | – | – | –
18 | Cc1cccc(C)c1CNc1ncnc2c(C)csc12 | – | – | – | – | – | – | – | < 4 | – | – | – | – | – | – | – | – | –
19 | Cc1cccc(C)c1CNc1nc(-c2ccccc2)cc2c(C)c(C)[nH]c12 | Insoluble | 6.7 | 5.31 | 7.7 | 3.7 | 0.6 | 6.6 | 6.3 | 0.3 | 0.316 | – | < 0.5 | 3.9 | – | – | – | –
20 | Cc1cccc(C)c1CNc1nccc2c1cc(C)n2C | – | 66 | 2.04 | 3.1 | 41 | < 0.1 | 4.3 | 6.8 | 6.9 | – | 9.14 | 3.8 | 28 | – | 17 | 22 | –
21 | Cc1cccc(C)c1CNc1cccn2c(C)ncc12 | – | – | – | – | – | – | – | 4.1 | – | – | 6.03 | – | – | – | – | – | –
22 | Cc1cccc(C)c1CNc1nccn2c(C)c(C)cc12 | – | 14 | 3.54 | 4.7 | 6.1 | < 0.1 | 1.6 | 7.6 | 4.7 | 0.141 | 7.92 | 11 | 50 | – | – | – | –
23 | Cc1cccc(C)c1CNc1nc(N2CCOCC2=O)cc2c(C)c(C)[nH]c12 | Insoluble | 61 | 2.83 | 22 | 35 | 25 | 22 | 5.9 | 66 | 0.2 | – | 1.6 | 4.3 | – | – | – | –
24 | Cc1cccc(C)c1CNc1nccc2c(C)c(C)[nH]c12 | – | 33 | 2.29 | 9 | 14 | < 0.1 | 9.6 | 9.4 | 1.8 | 0.0708 | – | 5 | 50 | – | 19 | – | 67.3
25 | Cc1cccc(C)c1CNc1nccc2c1nc(C)n2C | – | 68 | 2.09 | 12 | 31 | < 0.1 | 21 | 5.3 | 27 | 0.0741 | 7.49 | 3.4 | 14 | – | 6.5 | – | –
26 | Cc1cccc(C)c1CNc1nc(-n2ccccc2=O)cc2c(C)c(C)[nH]c12 | – | 3.3 | 3.18 | 3 | 29 | > 33 | 90 | 7.4 | 20 | – | 4.71 | 2.7 | 2.9 | – | – | – | –
27 | Cc1cccc(C)c1CNc1nc(-n2ccccc2=O)cc2c(C)c(C)n(CCO)c12 | – | 11.4 | 3.12 | 5.6 | > 100 | 45.5 | – | 6.8 | 40 | 0.251 | 4.5 | 12.1 | 21.9 | – | – | – | –
28 | Cc1cccc(C)c1CNc1ccnn2c(C)c(C)nc12 | – | – | 3.53 | – | – | – | – | 6.1 | – | – | – | – | – | – | – | – | –
29 | Cc1cccc(C)c1CNc1nc(N2CCCC2=O)cc2c(C)c(C)[nH]c12 | – | 1.4 | 3.77 | 1 | 26 | 1.9 | 1.8 | 7.4 | 6.4 | 0.158 | 6.32 | – | – | – | – | – | –
30 | Cc1cccc(C)c1CNc1nc(N2CCOCC2=O)cc2c(C)c(C)n(CCO)c12 | – | 13 | 2.93 | 6 | > 100 | 36 | 11 | 6.6 | > 100 | 0.0794 | 5.4 | 6.9 | 6.5 | – | – | – | –
31 | Cc1cccc(C)c1CNc1nccc2c(C)c[nH]c12 | – | – | – | – | – | – | – | 9 | – | – | 8.71 | – | – | – | – | – | 92.5
